ChEMBL document CHEMBL5058564, “EUbOPEN Chemogenomics Library 2 (Incucyte)” (2022)

Experiments:
Type in all cases: toxicity, cell-based
HEK-293T = assay: Incucyte cell viability with HEK293T; conditions: human, 10 µM, compound concentration 10 uM
Fibroblast = assay: Incucyte cell viability with human fibroblast; conditions: 10 µM, compound concentration 10 uM
U2OS = assay: Incucyte cell viability with U2OS; conditions: human, 10 µM, compound concentration 10 uM
[1] = 0 h, replicate number 1, timepoint 0 hours
[2] = 6 h, replicate number 1, timepoint 6 hours
[3] = 12 h, replicate number 2, timepoint 12 hours
[4] = 18 h, replicate number 2, timepoint 18 hours
[5] = 24 h, replicate number 2, timepoint 24 hours
[6] = 0 h, replicate number 2, timepoint 0 hours
[7] = 12 h, replicate number 1, timepoint 12 hours
[8] = 18 h, replicate number 1, timepoint 18 hours
[9] = 24 h, replicate number 1, timepoint 24 hours
[10] = 6 h, replicate number 2, timepoint 6 hours
Also: unitless GR value; below 1 slowed growth and below 0 cell loss.

Row | SMILES | Growth Rate (HEK-293T; [2]) | Growth Rate (HEK-293T; [3]) | Growth Rate (HEK-293T; [4]) | Growth Rate (Fibroblast; [6]) | Growth Rate (Fibroblast; [3]) | Growth Rate (Fibroblast; [4]) | Growth Rate (Fibroblast; [5]) | Growth Rate (U2OS; [2]) | Growth Rate (HEK-293T; [6]) | Growth Rate (HEK-293T; [7]) | Growth Rate (HEK-293T; [8]) | Growth Rate (HEK-293T; [9]) | Growth Rate (Fibroblast; [7]) | Growth Rate (Fibroblast; [9]) | Growth Rate (U2OS; [1]) | Growth Rate (U2OS; [6]) | Growth Rate (U2OS; [10]) | Growth Rate (U2OS; [8]) | Growth Rate (Fibroblast; [2]) | Growth Rate (Fibroblast; [10]) | also measured
1 | CC(C)(C)c1cc(NC(=O)Nc2ccc(-c3cn4c(n3)sc3cc(OCCN5CCOCC5)ccc34)cc2)no1 [QUIZARTINIB] | -0.18 | -0.06 | 0.17 | 0.43 | 1 | 0.89 | 0.78 | 0.41 | – | – | – | – | – | – | – | – | – | – | – | – | Growth Rate (HEK-293T; [1]): 0.2; Growth Rate (HEK-293T; [5]): 0.22; Growth Rate (Fibroblast; [1]): -0.84; Growth Rate (U2OS; [3]): 0.51; Growth Rate (U2OS; [4]): 0.52; Growth Rate (U2OS; [5]): 0.65
2 | Cc1cc(C)cc(C(=O)NOCCCCCC(=O)NO)c1 | – | 0.67 | 0.37 | 0.7 | – | – | – | 0.82 | 0.38 | 0.54 | 0.24 | 0.15 | 0.99 | 0.77 | 0.03 | -0.5 | 0.51 | 0.34 | – | – | Growth Rate (HEK-293T; [5]): 0.32; Growth Rate (Fibroblast; [1]): -0.03; Growth Rate (U2OS; [7]): 0.43; Growth Rate (U2OS; [3]): 0.5; Growth Rate (U2OS; [4]): 0.4; Growth Rate (U2OS; [9]): 0.37; Growth Rate (U2OS; [5]): 0.36
3 | CCCN(CCC)[C@@H]1CCc2ccc3[nH]c(C#N)cc3c2C1.Cl | 0.81 | – | – | -0.06 | – | – | – | 0.8 | 0.54 | 0.81 | – | 1 | – | 0.95 | 0.61 | 0.9 | – | 0.73 | 0.01 | – | Growth Rate (HEK-293T; [1]): 0.55; Growth Rate (HEK-293T; [5]): 0.95; Growth Rate (Fibroblast; [8]): 0.97; Growth Rate (U2OS; [9]): 0.95
4 | CN[C@@H](C)C(=O)N[C@H]1CCCC[C@H]2CC[C@@H](C(=O)N[C@@H](c3ccccc3)c3cn(CCCCc4ccc(CCCCn5cc([C@@H](NC(=O)[C@@H]6CC[C@@H]7CCCC[C@H](NC(=O)[C@H](C)NC)C(=O)N76)c6ccccc6)nn5)cc4)nn3)N2C1=O | 0.5 | 0.75 | 0.8 | 0.01 | 0.75 | 0.88 | 0.81 | 0.83 | 0.49 | 0.73 | 0.93 | 0.66 | 0.57 | 0.71 | -0.18 | – | – | 0.97 | 0.17 | – | Growth Rate (HEK-293T; [1]): 0.2; Growth Rate (HEK-293T; [10]): 0.74; Growth Rate (HEK-293T; [5]): 0.84; Growth Rate (U2OS; [9]): 1
5 | COc1cc2nc(N3CCN(C(=O)COc4c(OC)cccc4C(C)C)CC3)nc(N)c2cc1OC.Cl.Cl | -0.28 | 0.66 | 0.61 | 0.71 | -0.41 | -0.48 | -0.39 | – | 0.59 | -0.06 | 0.21 | 0.39 | -0.84 | -0.65 | – | -1 | – | – | -0.72 | -0.55 | Growth Rate (HEK-293T; [10]): 0.9; Growth Rate (HEK-293T; [5]): 0.84; Growth Rate (Fibroblast; [8]): -0.75; Growth Rate (U2OS; [7]): 0.56
6 | C[C@H](N)Cn1ccc2cc(F)c(Cl)cc21.O=C(O)/C=C/C(=O)O | 0.52 | – | – | – | 0.81 | 0.9 | 0.79 | 0.36 | – | 0.55 | 0.67 | 0.66 | 0.49 | 0.6 | -0.71 | 0.24 | 0.68 | 0.92 | 0.43 | 0.72 | Growth Rate (Fibroblast; [8]): 0.6; Growth Rate (U2OS; [7]): 0.57; Growth Rate (U2OS; [9]): 0.91
7 | O=C(O)c1cc2ccccc2c(Cc2c(O)c(C(=O)O)cc3ccccc23)c1O [PAMOIC ACID] | – | – | – | 0.41 | – | – | – | – | 0.89 | – | – | – | 0.52 | – | – | – | 0.75 | – | – | – | Growth Rate (HEK-293T; [1]): 0.69; Growth Rate (Fibroblast; [1]): -0.13; Growth Rate (Fibroblast; [8]): 0.93
8 | C[S+](C)[O-] [DIMETHYL SULFOXIDE] | – | – | – | 0.18 | 0.86 | – | 0.93 | 0.96 | 0.67 | – | 0.93 | – | 0.81 | – | 0.71 | -0.56 | 0.93 | 0.94 | 0.29 | – | Growth Rate (HEK-293T; [1]): 0.62; Growth Rate (U2OS; [4]): 0.98; Growth Rate (U2OS; [9]): 0.98
9 | Cc1cc(=O)n(C)c2cc(N3C(=O)CC[C@H](NS(=O)(=O)CC(C)C)[C@H]3c3ccc(Cl)cc3)ccc12 | -0.08 | 0.9 | 0.76 | – | -0.53 | -0.4 | -0.38 | 0.78 | 0.38 | 0.15 | 0.21 | 0.18 | -0.73 | -0.65 | -0.56 | -0.09 | – | 0.5 | -0.91 | -0.68 | Growth Rate (HEK-293T; [5]): 0.8; Growth Rate (Fibroblast; [8]): -0.76; Growth Rate (U2OS; [7]): 0.8; Growth Rate (U2OS; [3]): 0.96; Growth Rate (U2OS; [9]): 0.7
10 | N[C@@H]1c2cccnc2[C@H](OC(=O)N2CCC(n3c(=O)[nH]c4ncccc43)CC2)CC[C@H]1c1cccc(F)c1F [RIMEGEPANT] | 0.99 | – | – | – | -0.02 | 0.18 | -0.18 | – | 0.87 | – | – | 0.89 | -0.05 | 0.1 | -0.42 | – | 0.88 | – | -0.21 | 0.05 | Growth Rate (HEK-293T; [10]): 0.67; Growth Rate (Fibroblast; [1]): 0.86; Growth Rate (Fibroblast; [8]): 0.2; Growth Rate (U2OS; [4]): 0.96; Growth Rate (U2OS; [5]): 0.87
11 | CC#C[C@@H](CC(=O)O)c1ccc(OCc2cccc(-c3ccc(C(F)(F)F)cc3)c2)cc1 | – | 0.95 | 0.93 | – | 0.23 | 0.02 | 0.31 | – | – | – | 0.65 | 0.68 | – | 0.66 | 0.35 | – | 0.69 | 0.85 | 0.66 | -0.08 | Growth Rate (HEK-293T; [10]): 0.55; Growth Rate (U2OS; [3]): 0.96; Growth Rate (U2OS; [4]): 0.96
12 | Cc1noc(C)c1-c1cnc2c(-c3ccc(C(=O)O)cc3)cn([C@@H](C)c3ccccn3)c2c1 [PLX-51107] | – | – | – | 0.17 | 0.99 | – | – | 0.72 | – | – | 0.88 | 0.6 | – | – | -0.01 | -0.06 | 0.86 | 0.73 | 0.13 | 0.81 | Growth Rate (U2OS; [7]): 0.5; Growth Rate (U2OS; [4]): 0.96; Growth Rate (U2OS; [9]): 0.96
13 | Cc1nc2ccc(Oc3ccc(F)cc3)cc2c(=O)n1C[C@H]1CCCN(C(C)C)C1.Cl | 0.01 | 0.29 | 0.13 | – | -0.42 | -0.21 | -0.28 | -0.6 | – | -0.18 | -0.23 | -0.2 | -0.26 | -0.38 | – | – | 0.98 | – | -0.24 | -0.65 | Growth Rate (HEK-293T; [10]): 0.52; Growth Rate (HEK-293T; [5]): -0.05; Growth Rate (Fibroblast; [8]): -0.42; Growth Rate (U2OS; [3]): 0.97; Growth Rate (U2OS; [4]): 0.96
14 | C=CCN1C[C@H](C(=O)N(CCCN(C)C)C(=O)NCC)C[C@@H]2c3cccc4[nH]cc(c34)C[C@H]21 [CABERGOLINE] | 0.78 | – | – | 0.7 | – | – | – | – | – | 0.93 | – | – | 0.91 | – | – | -1 | – | – | 0.44 | 1 | Growth Rate (HEK-293T; [10]): 0.46; Growth Rate (Fibroblast; [1]): -0.05
